Results from patent US9399626B2, “2-thiopyrimidinones” (Pfizer Inc., priority 2011, dated 2016).
Counter-ions that a name gives are not always drawn.

molecular target: T1, MPO (purified from human polynuclear leukocytes) (Homo sapiens, UniProt P05164); assay: MPO Amplex Red Activity Assay; type: biochemical; settings: Table 1, 2 μM H2O2, pH 7.4
T1 construct: purified from human polynuclear leukocytes; purchased Calbiochem/EMD Biosciences; host or cells: human polynuclear leukocytes (natural source)
In short: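 Human leukocyte MPO […] oxidises 30 μM Amplex Red with 2 μM H2O2 in 50 mM NaPi pH 7.4, 150 mM NaCl, 1 mM DTPA, 2% DMSO. Resorufin fluorescence (ex 530/em 580 nm) read every 20 s, minus catalase background. kobs from the first 600 s, corrected for auto-inactivation, fit versus [I] for kinact/KI.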

T1 sequence (P05164 279-745 limits assumed): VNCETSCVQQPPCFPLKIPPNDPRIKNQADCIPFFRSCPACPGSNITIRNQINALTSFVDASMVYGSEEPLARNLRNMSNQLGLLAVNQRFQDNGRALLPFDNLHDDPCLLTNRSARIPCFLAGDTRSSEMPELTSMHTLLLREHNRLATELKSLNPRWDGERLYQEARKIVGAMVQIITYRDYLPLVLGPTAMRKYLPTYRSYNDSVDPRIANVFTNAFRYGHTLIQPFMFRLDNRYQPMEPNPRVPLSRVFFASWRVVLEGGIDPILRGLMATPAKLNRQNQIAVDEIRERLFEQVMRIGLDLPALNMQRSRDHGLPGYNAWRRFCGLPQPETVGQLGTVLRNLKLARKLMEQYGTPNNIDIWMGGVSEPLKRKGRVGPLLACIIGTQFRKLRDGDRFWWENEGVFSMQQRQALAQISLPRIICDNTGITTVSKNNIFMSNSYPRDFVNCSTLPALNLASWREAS
T1 sequence (P05164 165-273 limits assumed): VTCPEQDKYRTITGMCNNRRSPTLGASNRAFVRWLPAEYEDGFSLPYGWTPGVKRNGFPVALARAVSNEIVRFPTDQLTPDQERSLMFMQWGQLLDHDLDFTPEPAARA

| SMILES | MPO kinact/Ki |
| --- | --- |
| COc1cc(F)ccc1-c1cc(=O)[nH]c(=S)n1CCN [Example 25, 1-(2-aminoethyl)-6-(4-fluoro-2-methoxyphenyl)-2-thioxo-2,3-dihydropyrimidin-4(1H)-one hydrochloride] | 9210 1/s per M |
| NC(=O)Cn1c(-c2csc3ccccc23)cc(=O)[nH]c1=S [Example 68, 2-[6-(1-benzothien-3-yl)-4-oxo-2-thioxo-3,4-dihydropyrimidin-1(2H)-yl]acetamide] | 1160 1/s per M |
| COc1ccc(-c2cc(=O)[nH]c(=S)n2CCNS(C)(=O)=O)c(OC)c1 [Example 257, N-{2-[6-(2,4-dimethoxyphenyl)-4-oxo-2-thioxo-3,4-dihydropyrimidin-1(2H)-yl]ethyl}methanesulfonamide] | 3700 1/s per M |
| COc1ccc(-c2cc(=O)[nH]c(=S)n2CC2CNCCO2)c(OC)c1 (centres unmarked) [Example 238, 6-(2,4-dimethoxyphenyl)-1-(morpholin-2-ylmethyl)-2-thioxo-2,3-dihydropyrimidin-4(1H)-one hydrochloride] | 8740 1/s per M |
| COCCn1c(-c2ccc(S(C)(=O)=O)cc2)cc(=O)[nH]c1=S [Example 110, 1-(2-methoxyethyl)-6-[4-(methylsulfonyl)phenyl]-2-thioxo-2,3-dihydropyrimidin-4(1H)-one] | 864 1/s per M |
| COCCn1c(-c2ccc(OC)cc2F)cc(=O)[nH]c1=S [Example 316, 6-(2-fluoro-4-methoxyphenyl)-1-(2-methoxyethyl)-2-thioxo-2,3-dihydropyrimidin-4(1H)-one] | 3060 1/s per M |
| NCCn1c(-c2cccc3[nH]ccc23)cc(=O)[nH]c1=S [Example 142, 1-(2-aminoethyl)-6-(1H-indol-4-yl)-2-thioxo-2,3-dihydropyrimidin-4(1H)-one trifluoroacetate] | 4210 1/s per M |
| COc1ccc(-c2cc(=O)[nH]c(=S)n2CC(O)CO)c(OC)c1 (centres unmarked) [Example 201, 1-(2,3-dihydroxypropyl)-6-(2,4-dimethoxyphenyl)-2-thioxo-2,3-dihydropyrimidin-4(1H)-one] | 4350 1/s per M |
| COCCn1c(-c2ccc(S(=O)(=O)N(C)C)cc2)cc(=O)[nH]c1=S [Example 347, 4-[3-(2-methoxyethyl)-6-oxo-2-thioxo-1,2,3,6-tetrahydropyrimidin-4-yl]-N,N-dimethylbenzenesulfonamide] | 378 1/s per M |
| COc1cc(OC)c(-c2cc(=O)[nH]c(=S)n2CCCN)cc1F [Example 108, 1-(3-aminopropyl)-6-(5-fluoro-2,4-dimethoxyphenyl)-2-thioxo-2,3-dihydropyrimidin-4(1H)-one hydrochloride] | 5800 1/s per M |
| COc1ccc(F)cc1-c1cc(=O)[nH]c(=S)n1CCNC(=O)CN [Example 127, N-{2-[6-(5-fluoro-2-methoxyphenyl)-4-oxo-2-thioxo-3,4-dihydropyrimidin-1(2H)-yl]ethyl} glycinamide hydrochloride] | 5810 1/s per M |
| COCCn1c(-c2c(F)cccc2OC)cc(=O)[nH]c1=S [Example 60, 6-(2-fluoro-6-methoxyphenyl)-1-(2-methoxyethyl)-2-thioxo-2,3-dihydropyrimidin-4(1H)-one] | 3470 1/s per M |
| COc1ccc(-c2cc(=O)[nH]c(=S)n2CC(N)=O)c(OC)c1 [Example 174, 2-[6-(2,4-dimethoxyphenyl)-4-oxo-2-thioxo-3,4-dihydropyrimidin-1(2H)-yl]acetamide] | 10500 1/s per M |
| COc1cc(OC)c(-c2cc(=O)[nH]c(=S)n2CCO)cc1OC [Example 202, 1-(2-hydroxyethyl)-2-thioxo-6-(2,4,5-trimethoxyphenyl)-2,3-dihydropyrimidin-4(1H)-one] | 8280 1/s per M |
| CNC(=O)CCn1c(-c2ccc(OC)cc2OC)cc(=O)[nH]c1=S [Example 216, 3-[6-(2,4-dimethoxyphenyl)-4-oxo-2-thioxo-3,4-dihydropyrimidin-1(2H)-yl]-N-methylpropanamide] | 3260 1/s per M |
| COCCn1c(-c2cc(C#N)ccc2OC)cc(=O)[nH]c1=S [Example 171, 4-methoxy-3-[3-(2-methoxyethyl)-6-oxo-2-thioxo-1,2,3,6-tetrahydropyrimidin-4-yl]benzonitrile] | 8590 1/s per M |
| COc1cc(F)ccc1-c1cc(=O)[nH]c(=S)n1CCO [Example 27, 6-(4-fluoro-2-methoxyphenyl)-1-(2-hydroxyethyl)-2-thioxo-2,3-dihydropyrimidin-4(1H)-one] | 15800 1/s per M |
| COCCn1c(-c2cc3ccccc3o2)cc(=O)[nH]c1=S [Example 306, 6-(1-benzofuran-2-yl)-1-(2-methoxyethyl)-2-thioxo-2,3-dihydropyrimidin-4(1H)-one] | 6740 1/s per M |

same assay, conditions: Table 1A, 2 μM H2O2, pH 7.4

| SMILES | MPO kinact/Ki |
| --- | --- |
| COc1ccc(-c2cc(=O)[nH]c(=S)n2CC(=O)NCCN(C)C)c(OC)c1 [Example 392, 2-[6-(2,4-dimethoxyphenyl)-4-oxo-2-thioxo-3,4-dihydropyrimidin-1(2H)-yl]-N-[2-(dimethylamino)ethyl]acetamide] | 5830 1/s per M |
| COc1ccccc1-c1cc(=O)[nH]c(=S)n1CC(=O)NCCN [Example 372, N-(2-aminoethyl)-2-[6-(2-methoxyphenyl)-4-oxo-2-thioxo-3,4-dihydropyrimidin-1(2H)-yl]acetamide] | 6250 1/s per M |
| COc1ccc(-c2cc(=O)[nH]c(=S)n2CCO)c(OCCO)c1 [Example 409, 6-[2-(2-hydroxyethoxy)-4-methoxyphenyl]-1-(2-hydroxyethyl)-2-thioxo-2,3-dihydropyrimidin-4(1H)-one] | 18000 1/s per M |
| NC(=O)Cn1c(-c2cc(Cl)ccc2O)cc(=O)[nH]c1=S [Example 377, 2-[6-(5-chloro-2-hydroxyphenyl)-4-oxo-2-thioxo-3,4-dihydropyrimidin-1(2H)-yl]acetamide] | 8770 1/s per M |
| COc1ccc(Cl)cc1-c1cc(=O)[nH]c(=S)n1CCCNC(=N)NCC(C)(F)F [Example 451, 1-{3-[6-(5-chloro-2-methoxyphenyl)-4-oxo-2-thioxo-3,4-dihydropyrimidin-1(2H)-yl]propyl}-3-(2,2-difluoropropyl)guanidine] | 16000 1/s per M |
| N=C(N)NCCCn1c(-c2cc(F)ccc2OCCO)cc(=O)[nH]c1=S [Example 407, 1-(3-{6-[5-fluoro-2-(2-hydroxyethoxy)phenyl]-4-oxo-2-thioxo-3,4-dihydropyrimidin-1(2H)-yl}propyl)guanidine] | 18700 1/s per M |
| COc1ccc(-c2cc(=O)[nH]c(=S)n2CC(=O)N2CC(N)C2)c(OC)c1 [Example 431, 1-[2-(3-aminoazetidin-1-yl)-2-oxoethyl]-6-(2,4-dimethoxyphenyl)-2-thioxo-2,3-dihydropyrimidin-4(1H)-one] | 3440 1/s per M |
| CCNC(=O)Cn1c(-c2ccc(OC)cc2OC)cc(=O)[nH]c1=S [Example 434, 2-[6-(2,4-dimethoxyphenyl)-4-oxo-2-thioxo-3,4-dihydropyrimidin-1(2H)-yl]-N-ethylacetamide] | 4070 1/s per M |
| NCCNC(=O)Cn1c(-c2ccc(F)cc2OCCO)cc(=O)[nH]c1=S [Example 415, N-(2-aminoethyl)-2-{6-[4-fluoro-2-(2-hydroxyethoxy)phenyl]-4-oxo-2-thioxo-3,4-dihydropyrimidin-1(2H)-yl}acetamide] | 3910 1/s per M |
| COc1ccc(F)cc1-c1cc(=O)[nH]c(=S)n1CC(=O)NCCN [Example 371, N-(2-aminoethyl)-2-[6-(5-fluoro-2-methoxyphenyl)-4-oxo-2-thioxo-3,4-dihydropyrimidin-1(2H)-yl]acetamide] | 4570 1/s per M |
| COc1ccc(-c2cc(=O)[nH]c(=S)n2CCN(C)C(=O)CN)c(OC)c1 [Example 440, N-{2-[6-(2,4-dimethoxyphenyl)-4-oxo-2-thioxo-3,4-dihydropyrimidin-1(2H)-yl]ethyl}-N-methylglycinamide] | 3310 1/s per M |
